Source: US7977082B2, “Isomaltulose synthases, polynucleotides encoding them and uses therefor” (The University of Queensland of St. Lucia, priority 2001, dated 2011)
Values joined by “and” are separate entries in the source; they are usually repeats but may differ in a detail not shown here. Identical values can stand only once. Residues, ends and D or L forms follow the SMILES beside them.

What was measured:
strain 68J = assay: Growth of strain 68J with different carbon sources (BIOLOG GN); format: cell-based, Pantoea dispersa; design: scale not given here; conditions: relative values; 96-well plates (BIOLOG GN)
Protocol: The morphological, cultural and biochemical features of strain 68J were determined in tests using E. coli (Top 10), K. oxytoca (JMP4505), E. rhapontici (WAC2928) as positive/negative controls. Gram stain, fermentation, catalase activity, pigment observation, and Simon's citrate tests were conducted according to Singleton (1999, Bacteria in Biology, Biotechnology and Medicine (5th edition). Wiley, New York). Oxidase activity by Kovac's reagent, indole production by Ehrlich's indole test, methyl red response, Voges-Proskauer reaction in Clark and Lub's medium, urea hydrolysis in Christensen's urea, lysine decarboxylase, ornithine decarboxylase and gelatin liquefaction were tested as described by MacFaddin (1979, Biochemical Tests for Identification of Medical Bacteria. Williams & Wilkins, Baltimore). Morphology, capsules and motility were observed microscopically. Carbon source utilization was tested in 96-well plates (BIOLOG GN).

[1] = test system: E. rhapontici sucrose isomerase (SI); conditions: Nagai et al., 1994; Véronèse and Perlot, 1998; cited from earlier work
[2] = test system: K. plymuthica sucrose isomerase (SI); conditions: Nagai et al., 1994; Véronèse and Perlot, 1998; cited from earlier work
[3] = test system: P. rubrum sucrose isomerase (SI); conditions: Nagai et al., 1994; Véronèse and Perlot, 1998; cited from earlier work
[4] = test system: P. mesoacidophila sucrose isomerase (SI); conditions: Nagai et al., 1994; Véronèse and Perlot, 1998; cited from earlier work
P. dispersa 68J = assay: Growth in BP medium with different sugars; format: cell-based; conditions: 2% sugar added to BP medium, 18 h incubation at 30°C
Protocol: Isomaltulose production was tested using cells grown in LB and in a basal peptone medium (BP, comprising 1% BBL gelysate peptone and 0.5% NaCl, adjusted to pH 7.0 prior to autoclaving). Glucose, fructose, sucrose, lactose, maltose or isomaltulose was added to the cooled media, from a filter-sterilised stock. The media containing 4% (w/v) sucrose are referred to as SLB and SBP respectively.
Inoculum of 100 μL from a culture grown for 12 h in LB medium was added to 25 mL growth medium in a 250 mL flask. After 18 h at 30° C. on a shaker at 225 rpm, OD600 was used to measure growth. Cultures were diluted with growth medium to OD600=1.50 (approximately half the cell density of a saturated culture in SLB). Aliquots of 1 mL were harvested by centrifugation at 5000×g for 10 min and washed three times with 0.1 M citrate/phosphate buffer (pH 6.0). The cell pellets were resuspended in 0.4 mL of 0.1 M citrate/phosphate buffer (pH 6.0) containing 50% sucrose (w/v). Culture supernatant was filtered through a 0.2 μm filter (Pall Acrodisc), and 0.1 mL was mixed with 0.4 mL of 0.1 M citrate/phosphate buffer (pH 6.0) containing 50% sucrose (w/v), for parallel testing of culture filtrate and harvested cells in the SI assay.

[5] = substrate: OC[C@H]1O[C@@](CO)(O[C@H]2O[C@H](CO)[C@@H](O)[C@H](O)[C@H]2O)[C@@H](O)[C@@H]1O; assay: Sucrose isomerase kinetics, purified SI from P. dispersa 68J (isomaltulose production), with or without glucose/fructose; format: biochemical, Pantoea dispersa 68J; conditions: other: sucrose, pH 6.0, 30° C., Lineweaver and Burk
Protocol: (§1) The pET24b vector introduces a carboxy-terminal 6×His tag (SEQ ID NO: 52) on expressed proteins, which were purified by adsorption to Ni-NTA agarose (Qiagen) and elution with 25 mM NaH2PO4, 150 mM NaCl, 125 mM imidazole buffer (pH8.0) following the manufacturer's instructions. For storage, the eluted solution was diluted with 50% glycerol. The purity of SI proteins was tested by SDS-PAGE as described below. A batch procedure using Ni-NTA agarose in suspension yielded predominantly (80-95%) SI with a background of several other protein bands. A procedure using Ni-NTA agarose in adsorption columns yielded preparations containing a single protein band. […]
(§2) Enzyme activities were measured by incubating 5 μl of purified enzyme with 95 μL of sucrose solution at a final concentration of 584 mM in 0.1 M citrate/phosphate buffer (pH 6.0) at 30° C. Sugar profiles in the reaction mix were analysed at intervals by CE as described previously. […]
(§3) SI activity was measured by incubating the purified enzyme with different sucrose concentrations (3, 6, 15, 58, 146, 292, 584, 877, 1169 and 1461 mM) under standard assay conditions, and also with addition of glucose, fructose or both to a final concentration of 277 mM. Data were analyzed according to the method of Lineweaver and Burk (Voet and Voet, 1995) to calculate Km and Vmax values.

[6] = substrate: OC[C@H]1O[C@@](CO)(O[C@H]2O[C@H](CO)[C@@H](O)[C@H](O)[C@H]2O)[C@@H](O)[C@@H]1O; assay: Sucrose isomerase kinetics, purified SI from Klebsiella sp. 14S (isomaltulose production), with or without glucose/fructose; format: biochemical; conditions: other: sucrose, pH 6.0, 30° C., Lineweaver and Burk
Protocol: as §1, §2, §3

Molecule | Growth (strain 68J) | also measured
OC[C@H]1O[C@H](O[C@H]2O[C@H](CO)[C@@H](O)[C@H](O)[C@H]2O)[C@H](O)[C@@H](O)[C@@H]1O [D-trehalose] | 619 | –
O=C(O)CCC(=O)C(=O)O [α-keto glutanic acid] | 91 | –
α-D-lactose lactulose | 12 | –
O[C@H]1[C@H](O)[C@@H](O)[C@H](O)[C@@H](O)[C@H]1O [m-inositol] | 611 | –
Tween40 | 25 | –
C[C@@H](O)[C@H](N)C(=O)O [L-theronine] | −12 | –
CO[C@@H]1O[C@H](CO)[C@@H](O)[C@H](O)[C@H]1O [β-methyl D-glucosidase] | 684 | –
O=C(CO)[C@@H](O[C@H]1O[C@H](CO)[C@@H](O)[C@H](O)[C@H]1O)[C@H](O)[C@H](O)CO [Turanose] | 23 | –
2,3-butynediol | 1 | –
O=C(O)/C=C(/CC(=O)O)C(=O)O [cis-aconitic acid] | 122 | –
OC[C@@H](O)[C@@H](O)CO [i-erythritol] | 0 | –
OC[C@H]1OC(O)(CO)[C@@H](O)[C@@H]1O (stereo partly drawn) [fructose] | – | Inhibition of activity [1]: not; Inhibition of activity [2]: not; Inhibition of activity [3]: not; Inhibition of activity [4]: not
O=C1O[C@@H]([C@H](O)CO)[C@H](O)[C@H]1O [D-galactonic acid lactone] | −7 | –
OC[C@H]1O[C@@H]2O[C@H]3[C@H](O)[C@@H](O)[C@@H](O[C@H]4[C@H](O)[C@@H](O)[C@@H](O[C@H]5[C@H](O)[C@@H](O)[C@@H](O[C@H]6[C@H](O)[C@@H](O)[C@@H](O[C@H]7[C@H](O)[C@@H](O)[C@@H](O[C@H]1[C@H](O)[C@H]2O)O[C@@H]7CO)O[C@@H]6CO)O[C@@H]5CO)O[C@@H]4CO)O[C@@H]3CO [a-cyclodextrin] | 9 | –
NCCO [2-amino ethanol] | −4 | –
N[C@@H](C(=O)O)[C@@H](O)[C@H](O)[C@H](O)CO [D-glucosaminic acid] | 1 | –

Molecule | Growth (strain 68J) | also measured
NCC(=O)N[C@@H](CC(=O)O)C(=O)O [Glycyl-L-aspatic acid] (H-Gly-Asp-OH) | −8 | –
OC[C@H]1O[C@H](OCC2O[C@@H](O)[C@H](O)[C@@H](O)[C@@H]2O)[C@H](O)[C@@H](O)[C@H]1O (stereo partly drawn) [D-melibiose] | 6 | –
OC[C@@H](O)C(O)[C@H](O)CO [D-arabitol] | −11 | –
OC[C@H]1O[C@@H](O[C@H]2[C@H](O)[C@@H](O)C(O)O[C@@H]2CO)[C@H](O)[C@@H](O)[C@H]1O (stereo partly drawn) [lactose] | – | effect on growth of P. dispersa 68J (P. dispersa 68J): little effect
OC[C@H]1O[C@H](OC[C@H]2O[C@H](O[C@]3(CO)O[C@H](CO)[C@@H](O)[C@@H]3O)[C@H](O)[C@@H](O)[C@@H]2O)[C@H](O)[C@@H](O)[C@H]1O [D-raffinose] | 330 | –
CC(O)C(=O)O (racemic) [D,L-lactic acid] | 365 | –
O=C(O)[C@H]1OC(O)[C@H](O)[C@@H](O)[C@@H]1O (stereo partly drawn) [D-glucoronic acid] | 6 | –
OC[C@H]1O[C@@](CO)(O[C@H]2O[C@H](CO)[C@@H](O)[C@H](O)[C@H]2O)[C@@H](O)[C@@H]1O [Sucrose] | – | effect on growth of P. dispersa 68J (P. dispersa 68J): supported faster growth
C[N+](C)(C)CC(O)CC(=O)[O-] (racemic) [D,L-carnitine] | −10 | –
OC[C@H]1O[C@H](O[C@H]2[C@H](O)[C@@H](O)[C@H](O)O[C@@H]2CO)[C@H](O)[C@@H](O)[C@@H]1O [Maltose] | – | effect on growth of P. dispersa 68J (P. dispersa 68J): little effect
O=P(O)(O)OCC(O)CO (racemic) [D,L-α-glycerol phosphate] | −8 | –
O=P(O)(O)O[C@H]1O[C@H](CO)[C@@H](O)[C@H](O)[C@H]1O [Glucose-1-phosphate] | 356 | –
O=C(O)Cc1ccc(O)cc1 [ρ-hydroxy phenylacetic acid] | 5 | –
Pantoea dispersa 68J sucrose isomerase (SI), mature, SEQ ID NO: 10, carboxy-terminal 6×His tag (SEQ ID NO: 52) (Pantoea dispersa) (protein) ATNIQKSADFPIWWKQAVFYQIYPRSFKDSNGDGIGDIPGIIEKLDYLKMLGVDAIWINPHYESPNTDNGYDISDYRKIMKEYGSMADFDRLVAEMNKRGMRLMIDIVINHTSDRHRWFVQSRSGKDNPYRDYYFWRDGKQGQAPNNYPSFFGGSAWQLDKQTDQYYLHYFAPQQPDLNWDNPKVRAELYDILRFWLDKGVSGLRFDTVATFSKIPGFPDLSKAQLKNFAEAYTEGPNIHKYIHEMNRQVLSKYNVATAGEIFGVPVSAMPDYFDRRREELNIAFTFDLIRLDRYPDQRWRRKPWTLSQFRQVISQTDRAAGEFGWNAFFLDNHDNPRQVSHFGDDSPQWRERSAKALATLLLTQRATPFIFQGAELGMTNYPFKNIEEFDDIEVKGFWNDYVASGKVNAAEFLQEVRMTSRDNSRTPMQWNDSVNAGFTQGKPWFHLNPNYKQINAAREVNKPDSVFSYYRQLINLRHQIPALTSGEYRDLDPQNNQVYAYTRILDNEKYLVVVNFKPEQLHYALPDNLTIASSLLENVHQPSLQENASTLTLAPWQAGIYKLN | – | Km [5]: 46.6 mM and 47 mM; Vmax [5]: 636.9 U mg^−1
Klebsiella sp. 14S sucrose isomerase (SI), carboxy-terminal 6×His tag (SEQ ID NO: 52) (Klebsiella planticola) (protein) APSVNQNIHVHKESEYPAWWKEAVFYQIYPRSFKDTNDDGIGDIRGIIEKLDYLKSLGIDAIWINPHYDSPNTDNGYDISNYRQIMKEYGTMEDFDNLVAEMKKRNMRLMIDVVINHTSDQHPWFIQSKSDKNNPYRDYYFWRDGKDNQPPNNYPSFFGGSAWQKDAKSGQYYLHYFARQQPDLNWDNPKVREDLYAMLRFWLDKGVSSMRFDTVATYSKIPGFPNLTPEQQKNFAEQYTMGPNIHRYIQEMNRKVLSRYDVATAGEIFGVPLDRSSQFFDPRRHELNMAFMFDLIRLDRDSNERWRHKSWSLSQFRQIISKMDVTVGKYGWNTFFLDNHDNPRAVSHFGDDRPQWREASAKALATITLTQRATPFIYQGSELGMTNYPFRQLNEFDDIEVKGFWQDYVQSGKVTATEFLDNVRLTSRDNSRTPFQWNDTLNAGFTRGKPWFHINPNYVEINAEREETREDSVLNYYKKMIQLRHHIPALVYGAYQDLNPQDNTVYAYTRTLGNERYLVVVNFKEYPVRYTLPANDAIEEVVIDTQQQATAPHSTSLSLSPWQAGVYKLR | – | Km [6]: 81.6 mM; Vmax [6]: 99.8 U mg^−1
